The source of these data is article PMC6862253, “Synthesis and Evaluation of Anticancer Activity of New 4-Acyloxy Derivatives of Robustic Acid” (International Journal of Molecular Sciences, 2019).

For data set [1], the system named is human leukemic cells HL-60. In words: MTS anti-proliferative assay, HL-60. Type of data set: cell-based. As to conditions: mean ± SD. As for the experimental part:
(§1) The MTS (3-(4,5-dimethylthiazole-2-yl)-5-(3-carboxymethoxyphenyl)-2-(4-sulfophenyl)-2H- tetrazolium) (Promega, Madison, WI, USA) assay was used to determine the IC50 value for all compounds, according to [26]. We used a panel of five human carcinoma cell lines and two normal cells including HL-60, A549, SMMC-7721, HepG2, Hela, LO2 and BEAS-2B. Cells were seeded in 96-well plates at a density of 3 × 10^3–1.5 × 10^4 cells/well in 100 μL medium (DMEM or RMPI1640) and incubated for 12–24 h at 37 °C. Subsequently, cells were exposed to drugs in an additional 100 μL medium and were further incubated at 37 °C for 48 h. In brief, 100 μL MTS reagent supplement with 100 μL medium was added directly to the wells and cells were incubated at 37 °C for a minimum of 2 h. Colorimetric measurements were recorded at 492 nm. Background absorbance was corrected using triplicate sets of wells[…] containing medium only (no cells), and MTS reagent was added per experimental well. Each experiment was performed at least three times, and values in results are represented as mean ± SD.

The subject of data set [2] is human non-small cell lung carcinoma cells A-549. In words: MTS anti-proliferative assay, A-549. Type of data set: cell-based. As to conditions: mean ± SD. As for the experimental part: as §1
In general terms: Tetrazolium assays rely on reduction of a dye to a coloured formazan, in cell work by metabolically active cells.

The subject of data set [3] is human hepatic carcinoma cells SMMC-7721. In words: MTS anti-proliferative assay, SMMC-7721. In kind it is cell-based. The following applies: mean ± SD. As for the experimental part:
as §1

Data set [4] concerns human hepatocellular carcinoma cells HepG2. In words: MTS anti-proliferative assay, HepG2. Type of data set: cell-based. As to conditions: mean ± SD. As for the experimental part: as §1
Data set [5] concerns human cervical carcinoma cells Hela. As to the kind of experiment: MTS anti-proliferative assay, Hela. In kind it is cell-based. As to conditions: 48 h, mean ± SD. As for the experimental part: as §1
In data set [6] the test system is human normal liver cells LO2. As to the kind of experiment: MTS cytotoxicity assay, normal LO2 cells. Type of data set: cell-based. The following applies: mean ± SD. As for the experimental part: as §1
The test system of data set [7] is human normal lung epithelial cells BEAS-2B. In words: MTS cytotoxicity assay, normal BEAS-2B cells. In kind it is cell-based. The following applies: 48 h, mean ± SD. As for the experimental part: as §1
The target of data set [8] is T1, DNA topoisomerase I (Topo I) (Bos taurus, UniProt F1MN93).
T1 construct: purchased Takara Bio Inc
T1 sequence (F1MN93 1-767): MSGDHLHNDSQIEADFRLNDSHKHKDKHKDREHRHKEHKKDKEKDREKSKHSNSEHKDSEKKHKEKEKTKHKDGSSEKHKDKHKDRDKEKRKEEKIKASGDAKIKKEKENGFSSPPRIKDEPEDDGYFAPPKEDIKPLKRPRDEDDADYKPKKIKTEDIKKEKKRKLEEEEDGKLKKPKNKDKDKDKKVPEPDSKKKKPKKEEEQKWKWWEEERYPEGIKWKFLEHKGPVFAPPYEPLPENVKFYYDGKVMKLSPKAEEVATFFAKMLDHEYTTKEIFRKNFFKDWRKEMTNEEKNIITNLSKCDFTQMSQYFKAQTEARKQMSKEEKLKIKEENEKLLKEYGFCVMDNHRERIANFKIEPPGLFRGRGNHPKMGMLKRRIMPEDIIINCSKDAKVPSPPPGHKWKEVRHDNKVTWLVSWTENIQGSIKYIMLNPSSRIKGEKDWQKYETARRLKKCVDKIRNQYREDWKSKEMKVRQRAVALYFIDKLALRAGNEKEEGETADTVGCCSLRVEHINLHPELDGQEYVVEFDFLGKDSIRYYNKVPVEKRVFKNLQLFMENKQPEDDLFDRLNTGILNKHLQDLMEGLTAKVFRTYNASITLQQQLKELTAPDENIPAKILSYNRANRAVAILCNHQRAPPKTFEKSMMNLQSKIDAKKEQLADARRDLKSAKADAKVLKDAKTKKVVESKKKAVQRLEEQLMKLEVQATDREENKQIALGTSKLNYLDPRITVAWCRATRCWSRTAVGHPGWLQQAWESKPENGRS
In words: Topo I inhibitory activity, supercoiled DNA unwinding, agarose gel. In kind it is biochemical. The source says:
DNA Topo I is an important enzyme in all living organisms, and it participates in many cellular metabolic processes, such as replication, transcription, recombination, and repair. DNA Topo I has been established as a molecular target of anticancer drugs. A combined study of synthesis and docking for the anti-cancer activity of novel coumarins concluded that coumarin derivatives are potent cytotoxic agents. […] Currently, discovering novel non-camptothecin inhibitors for DNA Topo I has become an important area of research. Thus, a DNA Topo I inhibitory activity assay was also carried out using the supercoiled DNA unwinding method in this study. […] Therefore, compounds 2d, 2g, and 2i were selected for further quantitative investigation (depicted in Figure 5B). […] This correlates well with the cytotoxicity to HL-60, A-549, and SMMC-7721 cells. Thus, we infer that the anti-proliferative activity of 4-acyloxy derivatives of RA to these three cells may be related to Topo I. Supercoiled […] DNA was used as a substrate to determine the Topo I catalytic activity. Commercial samples of Topo I and pBR322 were obtained from Takara Bio Inc. The buffer solutions were prepared using 500 mM KAc, 200 mM Tris-Ac, 100 mM Mg(Ac)2, and 1 mg/mL BSA. The procedure used for determination of enzyme inhibitory activity was similar to one reported by Xu et al..

With `COC1=c2c(OC(=O)c3ccc(Br)cc3F)c(-c3ccc(OC)cc3)c(=O)oc2=CC2OC(C)(C)C=CC12` (centres unmarked) [Compound 2i, 4-O-(4-Bromo-2-fluorobenzoyl) robustic acid], the melting point – broadly, the temperature, or range, at which the solid turns liquid – lay within 250.8 to 251.9 °C.

Compound `CCc1ccc(C(=O)Oc2c(-c3ccc(OC)cc3)c(=O)oc3c2=C(OC)C2C=CC(C)(C)OC2C=3)cc1` (centres unmarked) [Compound 2h, 4-O-(p-Ethylbenzoyl)robustic acid] yielded a melting point of 246.9 to 250.2 °C.

On to `COC1=c2c(OC(=O)c3ccc(C(F)(F)F)cc3)c(-c3ccc(OC)cc3)c(=O)oc2=CC2OC(C)(C)C=CC12` (centres unmarked) [Compound 2d, 4-O-(p-Trifluoromethylbenzoyl)robustic acid], for which the melting point is 225.6 to 228.5 °C.

For the compound `COc1ccc(-c2c(OC(=O)c3ccc(F)cc3)c3c(OC)c4c(cc3oc2=O)OC(C)(C)C=C4)cc1` [Compound 2f, 4-O-(p-Fluorobenzoyl)robustic acid], the melting point lay within 236.8 to 239.6 °C. Also, the IC50 – broadly, the point on the concentration scale where inhibition reaches its midpoint – in data set [1] (Homo sapiens, HL-60, 48 h) is over 100 µM. Besides, in data set [2] (Homo sapiens, A549, 48 h), the IC50 is over 100 µM. Moreover, 66.2 ± 5.7 µM corresponded to half-maximal inhibition in data set [3] (Homo sapiens, SMMC-7721, 48 h) (IC50). This compound also showed an IC50 in [4] (Homo sapiens, HepG2, 48 h) of 87.3 ± 2.14 µM. In addition, the IC50 in [5] (Homo sapiens, HeLa) was 65.1 ± 1.27 µM. Also, the IC50 in data set [6] (Homo sapiens, L02, 48 h) was over 100 µM. The same compound yielded an IC50 in data set [7] (Homo sapiens, BEAS-2B) of over 100 µM. For the same compound, the “Topo I inhibitory activity” value in [8] (gel electrophoresis) is “moderate inhibitory activities”.

Take `COC1=c2c(OC(=O)c3ccccc3)c(-c3ccc(OC)cc3)c(=O)oc2=CC2OC(C)(C)C=CC12` (centres unmarked) [Compound 2a, 4-O-Benzoyl-robustic acid]: the melting point was 266.4 to 273.4 °C.

On to `COC1=c2c(OC(=O)c3cccs3)c(-c3ccc(OC)cc3)c(=O)oc2=CC2OC(C)(C)C=CC12` (centres unmarked) [Compound 2e, 4-O-Thenoyl robustic acid], for which the melting point is 171.5 to 182.3 °C.

`COc1ccc(-c2c(O)c3c(OC)c4c(cc3oc2=O)OC(C)(C)C=C4)cc1` [RA, robustic acid]: the IC50 is over 100 µM in data set [1] (Homo sapiens, HL-60, 48 h); over 100 µM in data set [2] (Homo sapiens, A549, 48 h); over 100 µM in data set [3] (Homo sapiens, SMMC-7721, 48 h); over 100 µM in data set [4] (Homo sapiens, HepG2, 48 h); over 100 µM in data set [5] (Homo sapiens, HeLa); over 100 µM in data set [6] (Homo sapiens, L02, 48 h). In addition, in [7] (Homo sapiens, BEAS-2B), the IC50 is over 100 µM. In addition, the “Topo I inhibitory activity” value in data set [8] (concentrations lower than 10 mM) is recorded as “no inhibitory activity was found”.

`COC1=c2c(OC(C)=O)c(-c3ccc(OC)cc3)c(=O)oc2=CC2OC(C)(C)C=CC12` (centres unmarked) [Compound 2j, 4-O-Acetylrobustic acid] gave a melting point of 189.9 to 192.1 °C.

For `N.N.[Cl][Pt][Cl]` [cisplatin], the IC50 in [1] (48 h) was 14.2 ± 0.56 µM; in data set [2] (48 h), 25.4 ± 1.06 µM; in [3] (48 h), 1.32 ± 0.97 µM; in data set [4] (48 h) it was 10.6 ± 1.4 µM; in [5], 5.83 ± 0.14 µM; in data set [6] (48 h) it was under 0.008 µM. The compound further yielded an IC50 in data set [7] of 57.7 ± 3.1 µM.

Take `COC1=c2c(OC(=O)c3ccc([N+](=O)[O-])cc3)c(-c3ccc(OC)cc3)c(=O)oc2=CC2OC(C)(C)C=CC12` (centres unmarked) [Compound 2g, 4-O-(p-Nitrobenzoyl)robustic acid]: the melting point lay in the range of 239.5 to 241.9 °C.

Consider `CC[C@@]1(O)C(=O)OCc2c1cc1n(c2=O)Cc2cc3ccccc3nc2-1` [CPT, camptothecin], for which the IC50 in [1] (Homo sapiens, HL-60, 48 h) was determined as 12.2 ± 1.06 µM; in [2] (Homo sapiens, A549, 48 h) it was 15.3 ± 1.22 µM; in [3] (Homo sapiens, SMMC-7721, 48 h) it was 18.9 ± 4.12 µM; in data set [4] (Homo sapiens, HepG2, 48 h), 1.3 ± 0.62 µM; in data set [5] (Homo sapiens, HeLa), 0.5 ± 0.08 µM; in data set [6] (Homo sapiens, L02, 48 h) it was 0.03 ± 0.002 µM. Inhibition in data set [7] (Homo sapiens, BEAS-2B) was half-maximal at 2.16 ± 0.47 µM (IC50).
